Drawing on patent publication US20100197590A1, “4-AMINO-7,8-DIHYDROPYRIDO[4,3-d]PYRIMIDIN-5(6H)-ONE DERIVATIVES” (Pfizer Inc, priority 2009, published 2010), this text covers IC50 for three compounds.

The target of this assay is T1, Human full-length diacylglycerol:acylCoA acyltransferase 1 (DGAT-1) (Homo sapiens, UniProt O75907).
T1 construct: Human full-length diacylglycerol:acylCoA acyltransferase 1 (DGAT-1) was expressed in Sf9 insect cells; made in house; host or cells: Sf9 insect cells (baculovirus)
T1 sequence (O75907 1-488): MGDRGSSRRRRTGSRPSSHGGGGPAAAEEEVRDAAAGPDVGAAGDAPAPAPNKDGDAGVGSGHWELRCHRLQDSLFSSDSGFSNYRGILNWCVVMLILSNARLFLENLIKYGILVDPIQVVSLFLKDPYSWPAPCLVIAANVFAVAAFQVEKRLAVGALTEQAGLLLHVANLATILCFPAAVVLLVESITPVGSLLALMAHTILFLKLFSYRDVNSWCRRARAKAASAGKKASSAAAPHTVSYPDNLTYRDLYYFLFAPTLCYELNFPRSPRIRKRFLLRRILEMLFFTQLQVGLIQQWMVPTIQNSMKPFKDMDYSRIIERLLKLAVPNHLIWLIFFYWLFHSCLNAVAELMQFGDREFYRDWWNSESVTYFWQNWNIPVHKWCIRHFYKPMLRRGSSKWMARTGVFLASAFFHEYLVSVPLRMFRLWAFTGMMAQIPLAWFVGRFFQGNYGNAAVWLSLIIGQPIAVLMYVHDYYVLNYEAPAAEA
Description: In vitro DGAT-1 inhibition, Assay 1. In kind it is biochemical. As to conditions: Sf9 microsomes at 25 μg/mL, [14C]decanoylCoA, eight inhibitor concentrations; average where n > 1. As for the experimental part: Human full-length diacylglycerol:acylCoA acyltransferase 1 (DGAT-1) was expressed in Sf9 insect cells which are then lysed and a crude membrane fraction (105,000×g pellet) was prepared. The DGAT-1 gene is a human DGAT-1 gene described in J Biol Chem 273:26765 (1998) and U.S. Pat. No. 6,100,077.
In vitro inhibition of DGAT-1 was measured using a modification, further described below, of the assay methodology described in U.S. Pat. No. 6,994,956 B2. The cells were cultured as follows. Sf9 cells (20 L) were infected with 4 mL of DGAT-1 Baculovirus Infected Insect Cells (BIIC) for 72 hours in a Wave Bioreactor System 20/50P (Wave Biotec/GE Healthcare).
Crude DGAT-1 microsomes were prepared as follows. Cell pellets were washed once with ice-cold Dulbecco's phosphate-buffered saline. Cells were collected in tabletop centrifuge (Beckman GS-6KR), 15 minutes, 2000×g, 4° C. Twenty (20) mL of ice-cold Microsome Buffer (MB) was added per 5 g of cell pellet. The suspension was passed through a microfluidizer 3 times (18K psi). […] The microsome concentration was determined using Bio-Rad Protein DC Protein Assay. […]
The Microsome Buffer, used for microsome preparation, was prepared by conventional means and contained 125 mM sucrose, 3 mM imidazole, 0.2 μg/mL aprotinin, 0.2 μg/mL leupeptin and 5 mM dithiothreitol (Cleland's reagent) at pH-7.4 DGAT-1 activity was measured in 384-well format in a total assay volume of 20 μl that contained, Hepes buffer (50 mM, pH 7.5), MgCl2 (10 mM), bovine serum albumin (0.6 mg/ml), [^14C]decanoylCoA (25 μM, 58 Ci/mol) and microsomes (5.6 μg/ml) into which 1,2 dioleoyl-sn-glycerol (75 μM) in acetone has already been incorporated. […]
The reactions were allowed to proceed for 1.5 h at room temperature and then terminated by the addition of 20 μl of EDTA (40 mM). […] Plates contents were allowed to partition for 15 to 30 min before ^14C was measured in a scintillation spectrometer (Wallac Microbeta Trilux 1450-030, 12 detector in the top-count DPM mode). […]

`Cc1nc(N)c2c(n1)CCN(c1ccc(C3CCC(CC(=O)O)CC3)cc1)C2=O` (stereo not drawn) [Example 13, 2-(4-(4-(4-amino-2-methyl-5-oxo-7,8-dihydropyrido[4,3-d]pyrimidin-6(5H)-yl)phenyl)cyclohexyl)acetic acid]: the IC50 – broadly, the concentration that inhibits the measured activity by half – amounted to 231 nM.

With `Cc1nc(N)c2c(n1)CCN(c1ccc([C@H]3CC[C@H](CC(=O)O)CC3)cc1)C2=O` [Example 14, {trans-4-[4-(4-amino-2-methyl-5-oxo-7,8-dihydropyrido[4,3-d]pyrimidin-6(5H)-yl)phenyl]cyclohexyl}acetic acid], the midpoint of inhibition, the IC50, lay at 618 nM.

The compound `Cc1nc(N)c2c(n1)CCN(c1ccc([C@H]3CC[C@@H](CC(=O)O)CC3)cc1)C2=O` [Example 15, {cis-4-[4-(4-amino-2-methyl-5-oxo-7,8-dihydropyrido[4,3-d]pyrimidin-6(5H)-yl)phenyl]cyclohexyl}acetic acid] came in with a half-inhibitory concentration (IC50) of 717 nM.
